Broadly, the IC50 is the concentration that inhibits the measured activity by half. As a reminder, the inhibition is how much of the control response was suppressed. Low readings indicate a response near the control, high ones a response far below the control.

In the test the target is T1, human vasopressin V2 receptor subtype (Homo sapiens, UniProt P30518).
T1 construct: host or cells: CHO cells, stably transfected (pZeoSV vector)
Briefly: Vasopressin binding in CHO cell membranes expressing human vasopressin V2 subtype receptors ([3H]arginine vasopressin radioligand binding). The settings on record: for IC50: value in parentheses; for inhibition at 0.1 µM: 100 nM. An outline of the steps: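 Membranes from CHO cells stably expressing human V2 receptor (25 to 50 μg protein/well) incubated 60 min at room temperature with [3H]arginine vasopressin in Tris-HCl pH 7.4 buffer with MgCl2, BSA and protease inhibitors. Filtration, scintillation counting; percent inhibition at one concentration or IC50 (nM).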

T1 sequence (P30518 whole entry): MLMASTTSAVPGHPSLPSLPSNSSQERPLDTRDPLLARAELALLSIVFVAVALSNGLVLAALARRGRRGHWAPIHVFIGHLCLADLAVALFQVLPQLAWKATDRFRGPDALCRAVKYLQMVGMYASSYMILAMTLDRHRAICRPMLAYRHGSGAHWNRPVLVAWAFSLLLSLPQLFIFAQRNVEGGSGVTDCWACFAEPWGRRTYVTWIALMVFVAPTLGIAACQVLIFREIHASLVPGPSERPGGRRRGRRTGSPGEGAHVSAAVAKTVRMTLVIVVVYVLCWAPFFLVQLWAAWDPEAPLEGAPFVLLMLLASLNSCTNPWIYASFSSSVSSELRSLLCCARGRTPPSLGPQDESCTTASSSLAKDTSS

On to `COc1ccccc1-c1ccc(C(=O)N2Cc3ccc(C(=O)N(C)Cc4cccnc4)n3Cc3ccccc32)cc1OC` [Example 103, 10-[(2,2′-Dimethoxy-[1,1′-biphenyl]-4-yl)carbonyl]-N-methyl-N-(3-pyridinylmethyl)-10,11-dihydro-5H-pyrrolo[2,1-c][1,4]benzodiazepine-3-carboxamide], for which the IC50 stood at 318 nM. `COc1ccccc1-c1ccc(C(=O)N2Cc3ccc(C(=O)N(C)Cc4cccnc4)n3Cc3ccccc32)cc1` [Example 104, 10-[(2′-Methoxy-[1,1′-biphenyl]-4-yl)carbonyl]-N-methyl-N-(3-pyridinylmethyl)-10,11-dihydro-5H-pyrrolo[2,1-c][1,4]benzodiazepine-3-carboxamide] showed an inhibition at 0.1 µM of 23%.

For the compound `Cc1ccccc1-c1ccc(C(=O)N2Cc3ccc(C(=O)N(C)Cc4cccnc4)n3Cc3ccccc32)cc1` [Example 105, N-Methyl-10-[(2′-methyl-[1,1′-biphenyl]-4-yl)carbonyl]-N-(3-pyridinylmethyl)-10,11-dihydro-5H-pyrrolo[2,1-c][1,4]benzodiazepine-3-carboxamide], 0.1 µM produced 6% inhibition. As to `Cc1cc(C(=O)N2Cc3ccc(C(=O)N(C)Cc4cccnc4)n3Cc3ccccc32)ccc1-c1ccccc1C(F)(F)F` [Example 112, N-Methyl-10-{[2-methyl-2′-trifluoromethyl-[1,1′-biphenyl]-4-yl]carbonyl}-N-(3-pyridinylmethyl)-10,11-dihydro-5H-pyrrolo[2,1-c][1,4]benzodiazepine-3-carboxamide], the IC50 came out at 1130 nM. For `COc1ccccc1-c1ccc(C(=O)N2Cc3ccc(C(=O)N4CCN(c5ccncc5)CC4)n3Cc3ccccc32)cc1C` [Example 113, {10-[(2′-Methoxy-2-methyl-[1,1′-biphenyl]-4-yl)carbonyl]-10,11-dihydro-5H-pyrrolo[2,1-c][1,4]benzodiazepin-3-yl}[4-(4-pyridinyl)-1-piperazinyl]methanone], the IC50 worked out at 545 nM.

The values are drawn from patent US7064120B2, “Tricyclic pyridyl carboxamides and derivatives thereof tocolytic oxytocin receptor antagonists” (Wyeth, priority 2001, dated 2006).
